Measured values reported in patent publication US6413747B1, “Enhancement of nucleic acid amplification by the addition of a polyamine” (Shimadzu Corporation, priority 1994, dated 2002).
“Also recorded” adds a separate entry of the source.

Assays:
[1] = system: DNA from LT Escherichia coli; format: biochemical; conditions: for reduction of inhibition of PCR due to feces (summary): human feces samples; for maximum concentration of feces at which amplification bands are observed, relative to no addition of polyamine (J) / appearance of amplification bands: polyamine 1 mM; for maximum concentration of feces at which amplification bands are observed, relative to no addition of polyamine (J): 40 cycles; for appearance of amplification bands: human feces
Experimental: A sample was obtained by making an 8% suspension of human feces in TE buffer and subjecting it to a heat treatment at 95° C. for 10 minutes. […] The detection was carried out as in Experiment No. 1.

HIV DNA [2] = experiment: PCR with human white blood cells, varying polyamine concentration (Experiment No. 1); format: biochemical, HIV-1
Experimental: White blood cells were obtained by taking 14 μl (7×10^4 WBC) of human blood, centrifuging it and removing therefrom the supernatant. Various kinds of polyamine, HIV DNA (100 copies/tube) and PCR core solution were added to the white blood cells thus collected for carrying out PCR (total 50 μl).
After a preheating process of 4 minutes at 94° C., the PCR was carried out for 50 cycles under the conditions of 94° C. for 30 seconds, 60° C. for 1 minute and 72° C. for 1 minute, followed by a polymerization process at 72° C. for 7 minutes. After the PCR was completed, DNAs were detected by electrophoresis with 3% agarose gel containing TAE buffer (40 mM Tris-acetate; 1 mM EDTA, pH 8.0) with 0.5 μg/ml etidium bromide by using 5 μl of the reaction mixture.
and the numerals (1-7) in FIG. 6 indicate the final concentration of polyamine as follows: […]

HIV DNA [3] = experiment: PCR with human white blood cells, 2 mM polyamine, varying number of HIV DNA copies (Experiment No. 2); format: biochemical, HIV-1; conditions: polyamine 2 mM; for number of HIV DNA copies detected (lowest): 40 cycles, copies/tube
Experimental: White blood cells were obtained by taking 14 μl (7×10^4 WBC) of human blood, centrifuging it and removing therefrom the supernatant. Various polyamines (2 mM), HIV DNA (1000, 100 10 and 0 copies/tube) and PCR core solution were added to the white blood cells thus collected for carrying out PCR (total 50 μl ). The same PCR core solution was used as in Experiment No. 1. The PCR was carried out for 40 cycles under the same conditions as in Experiment 1, and the amplification detection was carried out as in Experiment No. 1.

DNA = experiment: PCR with soil or tobacco leaf extract and spermidine (Example No. 3); format: biochemical; conditions: extract from soil or tobacco leaf (Groups B and C, Lanes 2-4)
Experimental: Used as the sample was 100 mg of sandy soil from a rice field or 100 mg of homogenized tobacco leaf. The sample was dissolved with 0.1 M EDTA and 0.1% SDS, purified with weakly negative ion-exchange resin (DEAE-Sepharose, fast flow (Pharmacia)), and eluted with 400 μl of 10 mM of tris-HCl (pH 7.0) containing 1 M NaCl. The extract which was colored light brown or light green indicated existence of much contamination of impurities for rough purification material. PCR was carried out after polyamine and PCR core solution were added to the extract. PCR core solution was prepared by removing KCl from the core solution used in Example No. 1. The amount of the PCR core solution was 24 μl, and 3 μl each of DNA-containing extract and spermidine solution was added thereto. PCR and detection of amplified DNA was carried out as in Example No. 1.
In FIG. 5, A indicates a positive control group containing only DNA, B indicates a group with soil extract mixed thereto, and C indicates a group with a tobacco leaf extract mixed thereto. The final concentration of polyamine was zero in Lane 1, 0.5 mM in Lane 2, 1 mM in Lane 3, 2 mM in Lane 4, 4 mM in Lane 5 and 8 mM in Lane 6. Lane M indicates a molecular weight marker.

[4] = system: β-globin coding region of the mouse; experiment: PCR on white blood cells of mouse blood added to human blood, with spermidine (Example No. 2); format: biochemical; conditions: spermidine 2 mM, no purification of DNA
Experimental: Used as the sample was 23 μl of human blood (with 6000 white blood cells/microliter) into which 5 μl of mouse blood, diluted step-wise with a phosphate buffer, was added. After the sample was subjected to a lysis process of red blood cells, the white blood cells were precipitated by centrifugation and the supernatant was removed. Polyamine and PCR core solution were added to the precipitated white cells. The primers for the PCR were oligonucleotide (P3, sequence number=3) homologous to plus-chain and oligonucleotide (P4, sequence number=4) homologous to minus-chain, which are located in the β-globin coding region of the mouse and what gives 174 bp PCR products: where
The same PCR core solution was used as in Example No. 1 except that the primers were P3 and P4. The total amount of the PCR reaction solution was 100 μl, and 10 μl of spermidine solution (final concentration: 2 mM) was added. PCR and detection of amplified DNA were carried out as in Example No. 1. […] If polyamine is added (Group A), by contrast, the inhibition of the amplification reaction is effectively removed, and the presence of PCR products can be detected if there are as few as about ten white blood cells of the mouse without any purification of DNA.

[5] = system: genomic DNA purified from cotton leaves; conditions: DNA isolated from plants; report by Wan and Wilkins; cited from earlier work

| Compound | reduction of inhibition of PCR due to feces (summary) [1] | maximum concentration of feces at which amplification bands are observed, relative to no addition of polyamine (J) [1] | number of HIV DNA copies detected (lowest) (HIV DNA [3]) | also measured |
| --- | --- | --- | --- | --- |
| NCCCNCCCCNCCCN [G, Spermine] | hardly any effect | 4 times | could not be detected | appearance of amplification bands [1]: only thin amplification bands; effect on PCR-inhibiting substances derived from blood (HIV DNA [2]; polyamine 0.125-8 mM, human white blood cells, 100 copies HIV DNA/tube, 50 cycles): hardly any effect; also recorded: no such effect was observed |
| Trimethylenediamine [B] | hardly any effect | twice as large | 10 copies | – |
| NCCNCCN [D, Diethylenetriamine] | – | 8 times | 10 copies | appearance of amplification bands [1]: brighter and thicker amplification bands than E; sensitivity relative to E (HIV DNA [3]): about 10 times |
| NCCN [A, Ethylenediamine] | – | 4 times | 10 copies | – |
| NCCCCN [C, Putrescine] | hardly any effect | twice as large | 10 copies | – |
| NCCNCCNCCN [F, Triethylenetetramine] | good results | 16 times | 10 copies | – |
| NCCCCNCCCN [E, Spermidine] | – | 8 times | – | polyamine concentration at which PCR products can be detected (DNA): 0.5 to 2 mM; amplification (HIV DNA [2]; polyamine concentration 0.25 mM, human blood): No amplification; number of white blood cells of the mouse at which PCR products can be detected [4]: about ten; optimum concentration [5]: 0.2 to 1 mM |
| NCCNCCNCCNCCN [H, Tetraethylenepentamine] | good results | – | 10 copies | – |
